Measured values from article PMC9088798, “An Approach to Derive Functional Peptide Inhibitors of Transcription Factor Activity” (JACS Au, 2022).

Legend:
[1] = tested on: cJun bZIP / TRE sites in TRE-mDHFR gene; assay: TBS liquid culture growth competition HingeW vs A-FosW; assay type: cell-based, human cJun, expressed in E. coli; details: equal numbers of cells with A-FosW or HingeW, selective M9 media, after three passages, DNA sequencing
Procedure: During the TBS library screening process, E. coli were transformed with the pooled DNA plasmid library such that each cell expressed a given member. Cells were plated onto M9 selective media and incubated until colonies expressing TBS active library members had formed. These colonies were pooled, and repeated liquid culture passages were undertaken under selective conditions to compete for library members against each other, enriching for the most TBS active sequences. At each stage of the assay, DNA sequencing was used to monitor the presence of TBS active sequences in the culture and inform on which residues were being selected at each position until one discrete DNA sequence was detected in the culture, referred to as HingeW (Figure 4). The residues selected in the winning HingeW peptide were universally found to be either acidic (D/E) or hydrophobic (V). Six of nine residues selected deviated from the parental A-FosW sequence with both V (E-to-V at e4 and c4, Q-to-V at f4) and E (L-to-E at a4, Q-to-E at e5, A-to-E at f5) newly selected in three positions. […]
increased to the optimum 4 µM in subsequent passages. […] This allows the occurrence of library members to be monitored as winner sequences are selected for. […]

[2] = tested on: cJun bZIP; assay: CD thermal denaturation of heterodimer with cJun bZIP; assay type: binding, human
Procedure: Figure 5 TBS winner peptide HingeW binds cJun preferentially over A-FosW. CD spectra (20 °C) show the binding of cJun to either (A) HingeW or (B) A-FosW. […] However, the effect is larger for HingeW, indicating a greater increase in peptide helicity. Similarly, the thermal denaturation of cJun bound to either (C) HingeW or (D) A-FosW is right-shifted from the average of the component peptide denaturation profiles. […] CD dimer exchange spectra show (E) an increase in helicity when HingeW is mixed with the A-FosW/cJun heterodimer as the HingeW exchanges with the A-FosW due to the binding preference of cJun for HingeW and (F) no shift from the average is observed when A-FosW is mixed with the HingeW/cJun heterodimer, indicating no change in dimer populations. Arrows are shown to highlight the shift from the average at 190 and 222 nm. In all experiments, the total sample peptide concentration was fixed to 10 μM, using equimolar concentrations of each component peptide to remove concentration-dependent effects. […]
µM) alongside ampicillin, kanamycin and chloramphenicol to maintain the required plasmids, and IPTG (1 mM) to induce protein expression. The library transformants were […]
however a lower stringency is used initially before selection is increased in later steps.
Colonies from this first round of selection were pooled and serially grown in liquid culture at starting OD600 of 0.05 and grown at 37°C with shaking at 200 rpm until the OD600 […]
increased to the optimum 4 µM in subsequent passages. Bacteria containing the most effective functional antagonists were expected to produce higher levels of TRE-mDHFR which provides a growth advantage, and these will dominate the culture. At each passage step, a sample of the culture was plated on LB agar (supplemented with antibiotics to maintain plasmids) to select and sequence individual colonies, and a DNA pool was also sequenced. This allows the occurrence of library members to be monitored as winner sequences are selected for. […]

LEQRAEELARENEELEKEAEELEQELDELQAEIEQLEERNYALRKEIEDLQKQLEKL [A-FosW, N-terminal AS and C-terminal GAP caps, 6xHis-tagged]
outcome of direct competition in liquid culture [1]: outcompeted | smaller initial transition of heterodimer with cJun (double transition) ([2]; 222 nm thermal denaturation): ~30 °C | Tm of heterodimer with cJun ([2]; 222 nm, 1-90 °C at 1 °C increments, total peptide 10 μM equimolar, pH 7.4, two-state model): 69.9 °C | ΔTm from component average (heterodimer with cJun) ([2]; heterodimer Tm minus average of component peptide denaturation profiles, for HingeW an estimate because homodimer Tm undeterminable): 27.5 °C
